Assay results taken from publication PMC3175004 (Aquatic toxicology (Amsterdam, Netherlands), 2010).
pIC50, pKi: −log10 of the molar value.

What was measured:
[1] = tested on: beluga AHR; conditions: determined by saturation binding; ref Jensen and Hahn 2001; cited from earlier work
[2] = target: T1, beluga AHR (Delphinapterus leucas, UniProt Q95LD9); assay type: binding
T1 sequence (Q95LD9 11-845): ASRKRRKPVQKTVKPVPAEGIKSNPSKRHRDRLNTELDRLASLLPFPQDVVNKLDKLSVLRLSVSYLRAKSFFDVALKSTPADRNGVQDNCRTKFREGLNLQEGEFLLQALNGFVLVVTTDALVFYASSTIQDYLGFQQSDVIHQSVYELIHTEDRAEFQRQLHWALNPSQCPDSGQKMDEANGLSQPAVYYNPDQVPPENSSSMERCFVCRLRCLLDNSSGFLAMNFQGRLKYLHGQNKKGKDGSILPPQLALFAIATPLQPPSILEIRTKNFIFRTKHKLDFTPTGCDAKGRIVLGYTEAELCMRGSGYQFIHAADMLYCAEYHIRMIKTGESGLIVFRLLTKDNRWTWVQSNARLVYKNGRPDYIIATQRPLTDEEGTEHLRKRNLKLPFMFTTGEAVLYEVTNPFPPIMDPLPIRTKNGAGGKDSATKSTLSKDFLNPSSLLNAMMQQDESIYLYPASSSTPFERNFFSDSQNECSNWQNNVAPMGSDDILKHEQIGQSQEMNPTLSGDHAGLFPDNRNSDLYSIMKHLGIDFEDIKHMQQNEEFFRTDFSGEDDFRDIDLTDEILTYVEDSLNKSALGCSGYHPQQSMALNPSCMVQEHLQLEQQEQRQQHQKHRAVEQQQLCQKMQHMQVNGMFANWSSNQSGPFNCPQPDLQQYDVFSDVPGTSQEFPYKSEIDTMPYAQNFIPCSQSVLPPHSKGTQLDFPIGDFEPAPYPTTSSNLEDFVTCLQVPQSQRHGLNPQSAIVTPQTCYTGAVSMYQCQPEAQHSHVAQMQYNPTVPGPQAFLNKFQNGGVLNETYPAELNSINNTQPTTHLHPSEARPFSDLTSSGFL

[3] = tested on: mouse AHR (Ah^b-1 allele); assay type: binding; conditions: mouse REP vs rat REP
[4] = target: T2, mouse AHR (Ah^b-1 allele) (Mus musculus, UniProt P30561); assay type: binding
T2 sequence (P30561 10-848): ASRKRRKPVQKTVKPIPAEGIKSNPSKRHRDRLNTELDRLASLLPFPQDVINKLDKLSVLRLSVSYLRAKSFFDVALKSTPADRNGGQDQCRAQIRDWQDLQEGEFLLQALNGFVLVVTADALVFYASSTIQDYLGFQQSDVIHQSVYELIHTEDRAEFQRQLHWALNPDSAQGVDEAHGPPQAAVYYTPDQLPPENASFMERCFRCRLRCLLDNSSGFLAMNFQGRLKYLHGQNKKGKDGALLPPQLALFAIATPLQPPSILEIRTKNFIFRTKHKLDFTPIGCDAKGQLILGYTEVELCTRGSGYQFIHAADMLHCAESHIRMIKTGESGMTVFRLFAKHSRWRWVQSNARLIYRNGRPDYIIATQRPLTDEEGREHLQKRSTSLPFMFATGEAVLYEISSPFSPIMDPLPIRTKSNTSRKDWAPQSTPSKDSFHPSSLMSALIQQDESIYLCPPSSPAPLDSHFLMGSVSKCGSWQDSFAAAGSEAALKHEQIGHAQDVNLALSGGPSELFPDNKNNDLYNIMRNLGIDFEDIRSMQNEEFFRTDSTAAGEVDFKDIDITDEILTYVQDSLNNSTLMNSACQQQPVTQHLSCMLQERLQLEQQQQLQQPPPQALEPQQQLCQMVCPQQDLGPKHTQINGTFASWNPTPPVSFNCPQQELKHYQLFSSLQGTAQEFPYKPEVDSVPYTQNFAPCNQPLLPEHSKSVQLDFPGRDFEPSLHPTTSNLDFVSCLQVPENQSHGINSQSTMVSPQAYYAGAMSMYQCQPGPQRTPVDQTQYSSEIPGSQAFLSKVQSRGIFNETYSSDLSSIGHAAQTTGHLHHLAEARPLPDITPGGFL

[3H]c1c(Cl)c(Cl)cc2c1Oc1cc(Cl)c(Cl)c([3H])c1O2 [[^3H]TCDD, 2,3,7,8-Tetrachloro[1,6-^3H]dibenzo-p-dioxin]
binding affinity for beluga AHR vs mouse AHR, fold higher [1]: ~ 2 fold

Clc1ccc(-c2cc(Cl)c(Cl)cc2Cl)cc1Cl [PCB-118]
fold lower REP compared to rat ([2]; beluga REP vs rat REP): 15 fold
fold lower REP compared to rat [3]: 10 fold

Clc1cc2c(cc1Cl)Oc1cc(Cl)c(Cl)cc1O2 [TCDD, 2,3,7,8-tetrachlorodibenzo-p-dioxin, reference compound]
pIC50 [2]: 9.33
pKi [2]: 10.00
pKi [4]: 9.44

Clc1ccc(-c2ccc(Cl)c(Cl)c2Cl)c(Cl)c1Cl [PCB-128]
inhibition of [3H]TCDD binding reached by the curves ([2]; beluga AHR, maximum reached by competition curves): 90%
inhibition of [3H]TCDD binding reached by the curves ([4]; mouse AHR, maximum reached by competition curves): 80%

Clc1ccc(-c2cc(Cl)c(Cl)c(Cl)c2)cc1 [PCB-81]
fold higher binding REP compared to rat ([2]; beluga REP vs rat REP): 14 fold
fold higher binding REP compared to rat [3]: 28 fold
